The structures appear in SMILES notation.

One may read the EC50 as the concentration that produces a half-maximal response. By IC50 is commonly meant the concentration that gives 50% inhibition.

The test system of assay [1] is HCV mutant replicon A156V. As to the kind of experiment: HCV PI Transient Replicon Assay, A156V. The note with it: Hepatitis C virus, 72 h, read-out: A156V EC50 values (nM). It counts as cell-based. An excerpt:
(§1) A model system for HCV RNA replication is a cell based assay using subgenomic or genomic HCV replicons containing HCV genes and possibly a selectable and/or screenable marker. […] The HCV PI transient replicons assay was derived from two publications ([…]; J Virol 75, 12047, 2001). In this assay, the target cells were “ET Cured cells”, a cell line generated by treating ET replicons cells (RebliKon) with Interferon a for several passages until the HCV genome was cleared. Other modifications to the published protocol included 1) cells were transfected in PBS and 2) were treated for 72 hours with compounds. Data from dose responses was analyzed using BioAssay. EC50 values were generated by plotting percent inhibition against compound concentration. The various HCV mutant replicons were generated by standard molecular biology techniques and confirmed by sequencing.
Background: Replicon systems follow genome replication, usually without infectious particles.

Assay [2] has as its system HCV mutant replicon A156S. In words: HCV PI Transient Replicon Assay, A156S. It counts as cell-based. The note with it: Hepatitis C virus, 72 h, read-out: A156S EC50 values (nM).
Text: as §1

The subject of assay [3] is HCV replicon wt. As to the kind of experiment: HCV PI Transient Replicon Assay, wt. It counts as cell-based. To be noted: Hepatitis C virus; ET Cured cells, 72 hours.
Text: as §1

Assay [4] concerns HCV mutant replicon A156T. In words: HCV PI Transient Replicon Assay, A156T. It counts as cell-based. To be noted: Hepatitis C virus, 72 h, read-out: A156T EC50 values (nM).
Text: as §1

In assay [5] the test system is HCV mutant replicon R155K. In words: HCV PI Transient Replicon Assay, R155K. It counts as cell-based. The note with it: Hepatitis C virus, 72 h, read-out: R155K EC50 values (nM).
Text: as §1

Assay [6] relates to HCV mutant replicon D168A. As to the kind of experiment: HCV PI Transient Replicon Assay, D168A. It counts as cell-based. The note with it: Hepatitis C virus, 72 h, read-out: D168A EC50 values (nM).
Text: as §1

The test system of assay [7] is HCV mutant replicon D168V. As to the kind of experiment: HCV PI Transient Replicon Assay, D168V. It counts as cell-based. To be noted: Hepatitis C virus, 72 h, read-out: D168V EC50 values (nM).
Text: as §1

For assay [8], the target named is HCV Genotype 1a NS3-4A Protease Domain (Hepatitis C virus genotype 1a, UniProt P27958, T1100M/T1173A). In words: Hepatitis C NS3 Protease FRET Assay (RET-S1). It counts as biochemical. As for the experimental part:
Hepatitis C NS3 Protease FRET Assay (RET-S1) Using the HCV Genotype 1a NS3-4A Protease Domain
Compounds were tested as inhibitors of HCV NS3-4A protease domain in 10 μl reactions which contained 50 mM HEPES pH 7.5, 20% sucrose, 0.05% NP40, 5 mM DTT, 1 μM 4A peptide ([…] that served as a cofactor and activated the enzyme in the assay) (prepared by standard synthetic methods), 5 μM RET S1 substrate (Ac-DED(EDANS)EEAbu ψ[COO] ASK(DABCYL)) and 1 nM NS3 protease domain. The RET S1 substrate (Ac-Asp-Glu-Asp(EDANS)-Glu-Glu-Abu-ψ-[COO]-Ala-Ser-Lys(DABCYL)-NH2) was purchased from Anaspec, Inc. (Taliani et. al, 1996, Anal Biochem). “ψ-[COO]” refers to the location of the ester bond within the molecule
Cleavage of the substrate, which is based on the natural NS4A/NS4B junction (DEMEECASHL), was monitored by measuring the increase in fluorescence with 355 nm excitation/495 nm emission in a Molecular Devices SpectraMax Gemini plate reader. Compounds were dissolved in DMSO and tested at 10 μM in duplicate or in dose response curves with usually 10 μM top concentration and 3-fold dilutions. The maximum level of DMSO was 5%. The standard compound in the assay was the compound BILN-2061 (Lamarre at al., (2003) Nature, 426, 186-189).

The subject of assay [9] is HCV protease-resistant mutants. In words: HCV PI Transient Replicon Assay, profile over resistant mutants. It counts as cell-based. To be noted: e.g. A1566S, A156T, R155K, others.
Text: as §1
Compounds of the invention are thought to be active against HCV protease-resistant mutants. […] EC50 values (nM) are shown below in Table 3.

Assay [10] has as its system sub-genomic HCV NS3-NS5B replicon of genotype 1b (ET subline) in Huh-7 cells. As to the kind of experiment: Replicon Luciferase Cell Based Assay, genotype 1b. The arrangement: species or system HCV genotype 1b. The note with it: Hepatitis C virus, Huh-7, 48 h, read-out: Genotype 1b (IC50 μM). A digest of the protocol:
(§2)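 5,000 luciferase-replicon cells per well in DMEM with 5% FCS were exposed to 1:3 compound dilutions for 48 h at 37 °C. Firefly luciferase (Steady-Glo) was read, with CellTiter-Glo on duplicate plates for cytotoxicity; background-subtracted signal as % of compound-free control gave IC50.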

Assay [11] deals with sub-genomic HCV NS3-NS5B replicon of genotype 1a in Huh-7 cells. In words: Replicon Luciferase Cell Based Assay, genotype 1a. More on the design: species or system HCV genotype 1a. The note with it: Hepatitis C virus, Huh-7, 48 hours. A digest of the protocol: as §2

As for `CC(C)(C)OC(=O)N[C@H]1CCCCC/C=C\[C@@H]2C[C@@]2(C(=O)NS(=O)(=O)C2CC2)NC(=O)[C@@H]2C[C@@H](OC(=O)N3Cc4cccc(F)c4C3)CN2C1=O` [ITMN-191], the concentration giving a half-maximal response (EC50) is 11.9 nM in [1]; 1.64 nM in [2]; 0.07 nM in assay [3]; 6.46 nM in assay [4]; 109 nM in [5]; 54.4 nM in [6]. In addition, the EC50 in assay [7] was 33.1 nM.

Take `COc1ccc2c(O[C@@H]3C[C@H]4C(=O)N[C@]5(C(=O)NS(=O)(=O)C6CC6)C[C@H]5/C=C\CCCCC[C@H](NC(=O)N5CCCCC5)C(=O)N4C3)cc(-c3nc(C(C)C)cs3)nc2c1C` [Example 16, (2R,6S,13aS,14aR,16aS)-N-(cyclopropylsulfonyl)-2-{[8-methyl-2-[4-(1-methylethyl)-1,3-thiazol-2-yl]-7-(methyloxy)-4-quinolinyl]oxy}-5,16-dioxo-6-[(1-piperidinylcarbonyl)amino]-1,2,3,6,7,8,9,10,11,13a,14,15,16,16a-tetradecahydrocyclopropa[e]pyrrolo[1,2-a][1,4]diazacyclopentadecine-14a(5H)-carboxamide]: the EC50 worked out at 7.17 nM in assay [1]; 0.07 nM in assay [2]; 0.04 nM in assay [3]; 1.95 nM in [4]; 6.93 nM in assay [5]; 24.8 nM in [6]. In addition, the EC50 in [7] was found to be 80.6 nM. The values for the IC50 in [8], in assay [10] and in assay [11] were 5 nM, less than 0.01 µM and less than 0.01 µM, respectively. Besides, the “profile against resistant mutants compared with other HCV PI inhibitors ITMN-191 and TMC-435350” value in [9] was “improved profile”.

Consider `COc1ccc2c(O[C@@H]3C[C@H]4C(=O)N[C@]5(C(=O)NS(=O)(=O)C6CC6)C[C@H]5/C=C\CCCCN(C)C(=O)[C@@H]4C3)cc(-c3nc(C(C)C)cs3)nc2c1C` [TMC-435350], for which the EC50 in assay [1] was found to be 36.3 nM; in [2], 0.28 nM; in [3], 0.87 nM; in assay [4] it was 57.5 nM; in assay [5], 58.9 nM; in [6], 161 nM. Further, the EC50 in [7] came to 43.7 nM.

For `COc1ccc2c(O[C@@H]3C[C@H]4C(=O)N[C@]5(C(=O)NS(=O)(=O)C6CC6)C[C@H]5/C=C\CCCCC[C@H](NC(=O)N5CCC5)C(=O)N4C3)cc(-c3nc(C(C)C)cs3)nc2c1C` [Example 18, (2R,6S,13aS,14aR,16aS)-6-[(1-azetidinylcarbonyl)amino]-N-(cyclopropylsulfonyl)-2-{[8-methyl-2-[4-(1-methylethyl)-1,3-thiazol-2-yl]-7-(methyloxy)-4-quinolinyl]oxy}-5,16-dioxo-1,2,3,6,7,8,9,10,11,13a,14,15,16,16a-tetradecahydrocyclopropa[e]pyrrolo[1,2-a][1,4]diazacyclopentadecine-14a(5H)-carboxamide], the IC50 in assay [10] and in [11] was less than 0.01 µM throughout.

`COc1ccc2c(O[C@@H]3C[C@H]4C(=O)N[C@]5(C(=O)NS(=O)(=O)C6CC6)C[C@H]5/C=C\CCCCC[C@H](NC(=O)N(C)C(C)(C)C)C(=O)N4C3)cc(-c3nc(C4CC4)cs3)nc2c1C` [Example 9, (2R,6S,13aS,14aR,16aS)-N-(cyclopropylsulfonyl)-2-{[2-(4-cyclopropyl-1,3-thiazol-2-yl)-8-methyl-7-(methyloxy)-4-quinolinyl]oxy}-6-({[(1,1-dimethylethyl)(methyl)amino]carbonyl}amino)-5,16-dioxo-1,2,3,6,7,8,9,10,11,13a,14,15,16,16a-tetradecahydrocyclopropa[e]pyrrolo[1,2-a][1,4]diazacyclopentadecine-14a(5H)-carboxamide]: the 50% inhibitory concentration (IC50) in assay [10] and in assay [11] was less than 0.01 µM in each case.

`COc1ccc2c(O[C@@H]3C[C@H]4C(=O)N[C@]5(C(=O)NS(=O)(=O)C6CC6)C[C@H]5/C=C\CCCCC[C@H](NC(=O)N5CCCC5)C(=O)N4C3)cc(-c3nc(C4CC4)cs3)nc2c1C` [Example 30, (2R,6S,13a-5,1-aR,16aS,Z)-N-(cyclopropylsulfonyl)-2-(2-(4-cyclopropylthiazol-2-yl)-7-methoxy-8-methylquinolin-4-yloxy)-5,16-dioxo-6-(pyrrolidine-1-carboxamido)-1,2,3,5,6,7,8,9,10,11,13a,14,14a,15,16,16a-hexadecahydrocyclopropa[e]pyrrolo[1,2-a][1,4]diazacyclopentadecine-14a-carboxamide]: the half-inhibitory concentration (IC50) in [10] and in [11] was less than 0.01 µM in each case.

Turning to `COc1ccc2c(O[C@@H]3C[C@H]4C(=O)N[C@]5(C(=O)NS(=O)(=O)C6CC6)C[C@H]5/C=C\CCCCC[C@H](NC(=O)N5CCC(CO)CC5)C(=O)N4C3)cc(-c3nc(C(C)C)cs3)nc2c1C` [Example 25, (2R,6S,13aS,14aR,16aS)-N-(cyclopropylsulfonyl)-6-({[4-(hydroxymethyl)-1-piperidinyl]carbonyl}amino)-2-{[8-methyl-2-[4-(1-methylethyl)-1,3-thiazol-2-yl]-7-(methyloxy)-4-quinolinyl]oxy}-5,16-dioxo-1,2,3,6,7,8,9,10,11,13a,14,15,16,16a-tetradecahydrocyclopropa[e]pyrrolo[1,2-a][1,4]diazacyclopentadecine-14a(5H)-carboxamide], the IC50 in [10] and in assay [11] was less than 0.01 µM each time.

Regarding `CCN(CC)C(=O)N[C@H]1CCCCC/C=C\[C@@H]2C[C@@]2(C(=O)NS(=O)(=O)C2CC2)NC(=O)[C@@H]2C[C@@H](Oc3cc(-c4nc(C(C)C)cs4)nc4c(C)c(OC)ccc34)CN2C1=O` [Example 2, (2R,6S,13aS,14aR,16aS)-N-(cyclopropylsulfonyl)-6-{[(diethylamino)carbonyl]amino}-2-{[8-methyl-2-[4-(1-methylethyl)-1,3-thiazol-2-yl]-7-(methyloxy)-4-quinolinyl]oxy}-5,16-dioxo-1,2,3,6,7,8,9,10,11,13a,14,15,16,16a-tetradecahydrocyclopropa[e]pyrrolo[1,2-a][1,4]diazacyclopentadecine-14a(5H)-carboxamide], the half-maximal inhibitory concentration (IC50) in [10] and in assay [11] was less than 0.01 µM each time.
